Data: the NIST ThermoML archive (doi:10.1016/j.jct.2012.12.001)
Where “and” joins values, the source holds several entries; their conditions need not be identical. Equal values may be shown once. Numbers after ± are expanded uncertainties.

Test: heat capacity at constant pressure per volume; xn = mol fraction of the nth substance listed
Settings: 101 kPa, Liquid, DSC, x2 = 0.695

CCCCCCCCCCCCCCCCC [heptadecane] + N#Cc1ccccc1
Settings | heat capacity
319 K | 1720700 ± 20000 J/K/m3
319.1 K | 1720600 ± 20000 J/K/m3
319.2 K | 1720500 ± 20000 J/K/m3
319.3 K | 1720600 ± 20000 J/K/m3
319.5 K | 1721300 ± 20000 J/K/m3
319.6 K | 1721200 ± 20000 J/K/m3
319.7 K | 1720900 ± 20000 J/K/m3
319.8 K | 1720700 ± 20000 J/K/m3
319.9 K | 1720500 ± 20000 J/K/m3
320 K | 1720400 ± 20000 J/K/m3
320.1 K | 1720500 ± 20000 J/K/m3
320.2 K | 1720300 ± 20000 J/K/m3
320.3 K | 1720800 ± 20000 J/K/m3
320.4 K | 1720700 ± 20000 J/K/m3
320.5 K | 1720400 ± 20000 J/K/m3
320.61 K | 1720200 ± 20000 J/K/m3
320.7 K | 1720000 ± 20000 J/K/m3
320.8 K | 1720000 ± 20000 J/K/m3
320.9 K | 1719900 ± 20000 J/K/m3
321 K | 1720300 ± 20000 J/K/m3
321.1 K | 1720600 ± 20000 J/K/m3
321.2 K | 1720600 ± 20000 J/K/m3
321.3 K | 1720600 ± 20000 J/K/m3
321.4 K | 1720400 ± 20000 J/K/m3
321.5 K | 1720000 ± 20000 J/K/m3
321.61 K | 1719900 ± 20000 J/K/m3
321.7 K | 1720100 ± 20000 J/K/m3
321.8 K | 1720100 ± 20000 J/K/m3
321.89 K | 1720400 ± 20000 J/K/m3
322 K | 1720500 ± 20000 J/K/m3
322.1 K | 1720500 ± 20000 J/K/m3
322.2 K | 1720100 ± 20000 J/K/m3
322.3 K | 1720100 ± 20000 J/K/m3
322.4 K | 1720300 ± 20000 J/K/m3
322.5 K | 1720600 ± 20000 J/K/m3
322.6 K | 1720600 ± 20000 J/K/m3
322.7 K | 1720800 ± 20000 J/K/m3
322.81 K | 1721200 ± 20000 J/K/m3
322.9 K | 1720800 ± 20000 J/K/m3
323 K | 1720200 ± 20000 J/K/m3
323.11 K | 1720200 ± 20000 J/K/m3
323.2 K | 1720100 ± 20000 J/K/m3
323.3 K | 1720100 ± 20000 J/K/m3
323.4 K | 1720200 ± 20000 J/K/m3
323.5 K | 1720700 ± 20000 J/K/m3
323.6 K | 1720800 ± 20000 J/K/m3
323.7 K | 1720800 ± 20000 J/K/m3
323.8 K | 1720500 ± 20000 J/K/m3
323.9 K | 1720400 ± 20000 J/K/m3
324 K | 1720200 ± 20000 J/K/m3
324.1 K | 1720200 ± 20000 J/K/m3
324.2 K | 1720200 ± 20000 J/K/m3
324.3 K | 1720300 ± 20000 J/K/m3
324.4 K | 1720500 ± 20000 J/K/m3
324.5 K | 1720500 ± 20000 J/K/m3
324.6 K | 1720500 ± 20000 J/K/m3
324.7 K | 1720600 ± 20000 J/K/m3
324.8 K | 1720600 ± 20000 J/K/m3
324.9 K | 1720400 ± 20000 J/K/m3
325 K | 1720700 ± 20000 J/K/m3
325.1 K | 1720700 ± 20000 J/K/m3
325.2 K | 1720400 ± 20000 J/K/m3
325.3 K | 1719500 ± 20000 J/K/m3
325.4 K | 1720300 ± 20000 J/K/m3
325.5 K | 1720500 ± 20000 J/K/m3
325.6 K | 1720300 ± 20000 J/K/m3
325.7 K | 1720400 ± 20000 J/K/m3
325.8 K | 1720200 ± 20000 J/K/m3
325.9 K | 1720200 ± 20000 J/K/m3
326 K | 1720600 ± 20000 J/K/m3
326.1 K | 1720900 ± 20000 J/K/m3
326.2 K | 1720900 ± 20000 J/K/m3
326.3 K | 1720900 ± 20000 J/K/m3
326.4 K | 1720400 ± 20000 J/K/m3
326.5 K | 1720200 ± 20000 J/K/m3
326.6 K | 1720300 ± 20000 J/K/m3
326.7 K | 1720400 ± 20000 J/K/m3
326.8 K | 1720400 ± 20000 J/K/m3
326.9 K | 1720700 ± 20000 J/K/m3
327 K | 1721000 ± 20000 J/K/m3
327.1 K | 1721000 ± 20000 J/K/m3
327.2 K | 1721100 ± 20000 J/K/m3
327.3 K | 1720800 ± 20000 J/K/m3
327.41 K | 1720500 ± 20000 J/K/m3
327.5 K | 1720400 ± 20000 J/K/m3
327.6 K | 1720500 ± 20000 J/K/m3
327.7 K | 1721000 ± 20000 J/K/m3
327.8 K | 1721200 ± 20000 J/K/m3
327.9 K | 1720800 ± 20000 J/K/m3
328 K | 1720800 ± 20000 J/K/m3
328.1 K | 1720800 ± 20000 J/K/m3
328.2 K | 1720900 ± 20000 J/K/m3
328.3 K | 1720700 ± 20000 J/K/m3
328.4 K | 1720800 ± 20000 J/K/m3
328.5 K | 1721000 ± 20000 J/K/m3
328.6 K | 1721500 ± 20000 J/K/m3
328.7 K | 1721400 ± 20000 J/K/m3
328.8 K | 1721200 ± 20000 J/K/m3
328.9 K | 1721300 ± 20000 J/K/m3
329 K | 1720900 ± 20000 J/K/m3
329.1 K | 1720900 ± 20000 J/K/m3
329.2 K | 1720800 ± 20000 J/K/m3
329.3 K | 1720700 ± 20000 J/K/m3
329.4 K | 1721000 ± 20000 J/K/m3
329.5 K | 1721100 ± 20000 J/K/m3
329.61 K | 1721300 ± 20000 J/K/m3
329.7 K | 1721300 ± 20000 J/K/m3
329.8 K | 1721400 ± 20000 J/K/m3
329.9 K | 1721400 ± 20000 J/K/m3
330 K | 1721300 ± 20000 J/K/m3
330.1 K | 1722000 ± 20000 J/K/m3
330.2 K | 1722500 ± 20000 J/K/m3
330.3 K | 1722400 ± 20000 J/K/m3
330.4 K | 1722100 ± 20000 J/K/m3
330.5 K | 1721600 ± 20000 J/K/m3
330.61 K | 1721600 ± 20000 J/K/m3
330.7 K | 1721300 ± 20000 J/K/m3
330.8 K | 1721300 ± 20000 J/K/m3
330.9 K | 1721300 ± 20000 J/K/m3
331 K | 1721500 ± 20000 J/K/m3
331.1 K | 1721700 ± 20000 J/K/m3
331.2 K | 1721500 ± 20000 J/K/m3
331.3 K | 1721200 ± 20000 J/K/m3
331.4 K | 1721400 ± 20000 J/K/m3
331.5 K | 1721300 ± 20000 J/K/m3
331.6 K | 1721300 ± 20000 J/K/m3
331.7 K | 1721500 ± 20000 J/K/m3
331.81 K | 1721700 ± 20000 J/K/m3
331.9 K | 1722000 ± 20000 J/K/m3
332 K | 1722000 ± 20000 J/K/m3
332.1 K | 1721900 ± 20000 J/K/m3
332.2 K | 1722100 ± 20000 J/K/m3
332.3 K | 1722100 ± 20000 J/K/m3
332.4 K | 1722000 ± 20000 J/K/m3
332.5 K | 1722000 ± 20000 J/K/m3
332.6 K | 1722200 ± 20000 J/K/m3
332.7 K | 1722600 ± 20000 J/K/m3
332.8 K | 1722700 ± 20000 J/K/m3
332.9 K | 1722700 ± 20000 J/K/m3
333 K | 1722600 ± 20000 J/K/m3
333.1 K | 1722200 ± 20000 J/K/m3
333.2 K | 1721900 ± 20000 J/K/m3
333.31 K | 1721900 ± 20000 J/K/m3
333.4 K | 1722000 ± 20000 J/K/m3
333.5 K | 1722000 ± 20000 J/K/m3
333.6 K | 1722200 ± 20000 J/K/m3
333.7 K | 1722700 ± 20000 J/K/m3
333.8 K | 1722800 ± 20000 J/K/m3
333.9 K | 1722600 ± 20000 J/K/m3
334 K | 1722600 ± 20000 J/K/m3
334.1 K | 1722700 ± 20000 J/K/m3
334.2 K | 1722600 ± 20000 J/K/m3
334.3 K | 1722900 ± 20000 J/K/m3
334.4 K | 1723400 ± 20000 J/K/m3
334.5 K | 1723900 ± 20000 J/K/m3
334.6 K | 1723800 ± 20000 J/K/m3
334.7 K | 1723400 ± 20000 J/K/m3
334.8 K | 1723000 ± 20000 J/K/m3
334.9 K | 1722900 ± 20000 J/K/m3
335 K | 1723100 ± 20000 J/K/m3
335.1 K | 1723300 ± 20000 J/K/m3
335.2 K | 1723600 ± 20000 J/K/m3
335.3 K | 1723700 ± 20000 J/K/m3
335.4 K | 1723700 ± 20000 J/K/m3
335.5 K | 1723700 ± 20000 J/K/m3
335.6 K | 1723600 ± 20000 J/K/m3
335.7 K | 1723500 ± 20000 J/K/m3
335.8 K | 1723300 ± 20000 J/K/m3
335.9 K | 1723400 ± 20000 J/K/m3
336 K | 1723600 ± 20000 J/K/m3
336.1 K | 1723400 ± 20000 J/K/m3
336.2 K | 1723600 ± 20000 J/K/m3
336.3 K | 1723200 ± 20000 J/K/m3
336.4 K | 1723100 ± 20000 J/K/m3
336.5 K | 1723300 ± 20000 J/K/m3
336.6 K | 1723400 ± 20000 J/K/m3
336.7 K | 1723700 ± 20000 J/K/m3
336.8 K | 1724100 ± 20000 J/K/m3
336.9 K | 1724400 ± 20000 J/K/m3
337 K | 1724100 ± 20000 J/K/m3
337.1 K | 1724200 ± 20000 J/K/m3
337.18 K | 1724100 ± 20000 J/K/m3
337.32 K | 1723700 ± 20000 J/K/m3
337.43 K | 1723700 ± 20000 J/K/m3
337.52 K | 1724100 ± 20000 J/K/m3
337.6 K | 1724300 ± 20000 J/K/m3
337.73 K | 1724500 ± 20000 J/K/m3
337.8 K | 1724400 ± 20000 J/K/m3
337.9 K | 1724900 ± 20000 J/K/m3
338 K | 1724800 ± 20000 J/K/m3
338.01 K | 1724800 ± 20000 J/K/m3
338.02 K | 1724900 ± 20000 J/K/m3
338.03 K | 1724900 ± 20000 J/K/m3
338.45 K | 1724800 ± 20000 J/K/m3 and 1724900 ± 20000 J/K/m3
338.53 K | 1725300 ± 20000 J/K/m3
338.58 K | 1725400 ± 20000 J/K/m3
338.59 K | 1725200 ± 20000 J/K/m3
338.6 K | 1725300 ± 20000 J/K/m3
338.62 K | 1725200 ± 20000 J/K/m3
339 K | 1724600 ± 20000 J/K/m3 and 1724700 ± 20000 J/K/m3
339.01 K | 1724600 ± 20000 J/K/m3 and 1724500 ± 20000 J/K/m3
339.1 K | 1724700 ± 20000 J/K/m3 and 1724600 ± 20000 J/K/m3
339.11 K | 1724700 ± 20000 J/K/m3 and 1724800 ± 20000 J/K/m3
339.13 K | 1724700 ± 20000 J/K/m3
339.2 K | 1725100 ± 20000 J/K/m3
